Measurements as given in BindingDB's records for doi:10.1021/jm00114a002 (Abbott Laboratories, 1991).

Assay: Compound was tested in vitro for binding affinity for 5-hydroxytryptamine 1C receptor

Structure (SMILES)	Ki
NC[C@@H]1O[C@H](c2ccccc2)Cc2c1ccc(Br)c2O	200 nM
Cc1ccc2c(c1O)C[C@@H](C1CCCCC1)O[C@H]2CN	58 nM
